Earlier results on three molecules are cited in patent publication EP1568762A1, “Detergent tablet compositions and their manufacture” (UNILEVER N.V., priority 2004, dated 2005).

Read-outs that look alike come from different tables or passages of the source. Where only a bound is given, the exact number is not on record here.

Where [1] appears, read: other common materials, by contrast, at 20°C.

`O=P(O)(O)OP(=O)(O)OP(=O)(O)O` [Sodium tripolyphosphate anhydrous]: under setting [1], the “Water Solubility (g/100g)” value is listed as 15 g/100g.

Regarding `NC(N)=O` [Urea], the “Water Solubility (g/100g)” value (highly water-soluble materials, grams of solid required to form a saturated solution in 100 grams of water at 20°C) is over 100 g/100g.

Consider `O=BO[O-].[Na+]` [Sodium perborate anhydrous], for which the “Water Solubility (g/100g)” value under setting [1] is reported as 3.7 g/100g.
